88 compounds from the Kinase Knowledgebase extract (Sharma et al. 2016) can be followed below.

Bounds are passed on as bounds.

For the experiment, the target named is MAPK14 (human) (UniProt Q16539). Briefly: In vitro Inhibition of VEGF Stimulated MAPK Activation.
Chain of MAPK14 (human) (Q16539 whole entry, looked up): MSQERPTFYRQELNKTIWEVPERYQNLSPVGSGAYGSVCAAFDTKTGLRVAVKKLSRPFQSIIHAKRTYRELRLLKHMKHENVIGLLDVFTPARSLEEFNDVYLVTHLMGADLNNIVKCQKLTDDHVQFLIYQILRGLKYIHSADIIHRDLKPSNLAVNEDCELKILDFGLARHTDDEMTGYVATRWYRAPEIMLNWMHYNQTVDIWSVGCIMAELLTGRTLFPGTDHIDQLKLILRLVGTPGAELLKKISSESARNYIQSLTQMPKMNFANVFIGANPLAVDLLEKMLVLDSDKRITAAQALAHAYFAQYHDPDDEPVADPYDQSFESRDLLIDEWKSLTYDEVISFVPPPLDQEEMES
The term IC50 denotes the point on the concentration scale where inhibition reaches its midpoint. Low readings indicate inhibition by little substance, high ones a need for much substance. For `COc1cc2nccc(Oc3ccc(NC(=O)Nc4ccccn4)c(C)c3C)c2cc1OC`, the IC50 was 3.5 nM.

For the compound `COc1cc2ncnc(Oc3ccc(NC(=O)NCc4ccccn4)c(Cl)c3)c2cc1OC`, the IC50 is above 1000 nM.

`C#CCNC(=O)Nc1ccc(Oc2ncnc3cc(OC)c(OC)cc23)cc1F` showed an IC50 of 46 nM.

Consider `COc1cc2nccc(Oc3ccc(NC(=O)Nc4ccc(C)cn4)c(Cl)c3)c2cc1OC`, for which the IC50 was determined as 8.5 nM.

`COc1cc2nccc(Oc3ccc(NC(=O)Nc4ccc(F)cc4F)c([N+](=O)[O-])c3)c2cc1OC` yielded an IC50 of 0.5 nM.

With `C#CCNC(=O)Nc1ccc(Oc2ncnc3cc(OC)c(OC)cc23)cc1`, the IC50 turned out to be 67 nM.

On to `COc1cc2nccc(Oc3ccc(NC(=O)Nc4ccc(Cl)cn4)c(C)c3C)c2cc1OC`, for which the IC50 was determined as 4 nM.

As to `COc1cc2nccc(Oc3ccc(NC(=O)Nc4cccc(C)n4)c(Cl)c3)c2cc1OC`, the IC50 was determined as 3.4 nM.

In turn, `COc1ccc(NC(=O)Nc2ccc(Oc3ccnc4cc(OC)c(OC)cc34)cc2Cl)cc1` returned an IC50 of 0.4 nM.

The compound `COc1cc2nccc(Oc3ccc(NC(=O)Nc4ccc(F)cc4C)c(C)c3C)c2cc1OC` came in with an IC50 of 3.9 nM.

`COc1cc2ncnc(Oc3ccc(NC(=O)Nc4ccc(F)cc4)cc3C)c2cc1OC` showed an IC50 of 5.2 nM.

For `COc1cc2nccc(Oc3ccc(NC(=O)NCC(C)C)c(F)c3)c2cc1OC`, the IC50 was found to be 15 nM.

In turn, `CCCCNC(=O)Nc1ccc(Oc2ncnc3cc(OC)c(OC)cc23)cc1C` gave an IC50 of 53 nM.

With `COc1cc2nccc(Oc3ccc(NC(=O)Nc4ccc(Cl)cc4C)c(C)c3C)c2cc1OC`, the IC50 was found to be 7.3 nM.

The compound `CCNC(=O)Nc1ccc(Oc2ncnc3cc(OC)c(OC)cc23)cc1` showed an IC50 of 70 nM.

With `COc1ccccc1NC(=O)Nc1ccc(Oc2ncnc3cc(OC)c(OC)cc23)cc1`, the IC50 was 1.2 nM.

With `COc1cc2ncnc(Oc3ccc(NC(=O)Nc4ccc(F)cc4)c(Cl)c3)c2cc1OC`, the IC50 was found to be 0.7 nM.

On to `CCCNC(=O)Nc1ccc(Oc2ncnc3cc(OC)c(OC)cc23)cc1`, for which the IC50 was found to be 42 nM.

Consider `COc1ccc(NC(=O)Nc2cc(C)c(Oc3ccnc4cc(OC)c(OC)cc34)cc2C)cc1`, for which the IC50 came out at 4.3 nM.

Turning to `COCCOc1cc2nccc(Oc3ccc(NC(=O)Nc4ccccc4OC)c(C)c3C)c2cc1OC`, the IC50 was determined as 6.5 nM.

The compound `COCCOc1cc2nccc(Oc3ccc(NC(=O)Nc4ccccc4OC)c(Cl)c3)c2cc1OC` showed an IC50 of 2.8 nM.

For `CCC(C)NC(=O)Nc1ccc(Oc2ncnc3cc(OC)c(OC)cc23)cc1Cl` (stereo not drawn), the IC50 was 30 nM.

As for `COc1cc2nccc(Oc3cc(C)c(NC(=O)Nc4ccc(F)cc4F)cc3C)c2cc1OC`, the IC50 came to 2.3 nM.

In turn, `CCCCNC(=O)Nc1ccc(Oc2ncnc3cc(OC)c(OC)cc23)cc1Cl` registered an IC50 of 71 nM.

In turn, `COCCOc1cc2nccc(Oc3cc(C)c(NC(=O)Nc4ccc(F)cc4F)cc3C)c2cc1OC` gave an IC50 of 5.1 nM.

The compound `COCCOc1cc2nccc(Oc3ccc(NC(=O)Nc4ccc(F)cc4F)c(C)c3C)c2cc1OC` came in with an IC50 of 5.1 nM.

As to `COc1cc2ncnc(Oc3ccc(NC(=O)NCc4ccc(F)cc4F)cc3)c2cc1OC`, the IC50 came out at 6800 nM.

For `CCC(C)NC(=O)Nc1ccc(Oc2ncnc3cc(OC)c(OC)cc23)cc1` (stereo not drawn), the IC50 turned out to be 345 nM.

Turning to `COc1ccccc1NC(=O)Nc1cc(C)c(Oc2ccnc3cc(OC)c(OC)cc23)cc1C`, the IC50 is 3.8 nM.

Consider `COCCOc1cc2nccc(Oc3cc(C)c(NC(=O)Nc4ccccc4OC)cc3C)c2cc1OC`, for which the IC50 was 5.8 nM.

As for `COc1cc2nccc(Oc3ccc(NC(=O)Nc4cccc5ccccc45)c(Cl)c3)c2cc1OC`, the 50% inhibitory concentration (IC50) stood at 5.4 nM.

With `COc1cc2nccc(Oc3ccc(NC(=O)Nc4ccc(F)cc4C)c(Cl)c3)c2cc1OC`, the IC50 stood at 0.7 nM.

The compound `CCC(C)NC(=O)Nc1ccc(Oc2ncnc3cc(OC)c(OC)cc23)cc1F` (stereo not drawn) gave an IC50 of 42 nM.

As for `COc1cc2c(Oc3ccc(NC(=O)Nc4ccc(F)cc4F)c(F)c3)ccnc2cc1OCCN1CCOCC1`, the IC50 came out at 0.5 nM.

Regarding `COc1ccc(NC(=O)Nc2cc(C)c(Oc3ccnc4cc(OC)c(OC)cc34)cc2C)c(OC)n1`, the IC50 is 2 nM.

For `CCCNC(=O)Nc1ccc(Oc2ncnc3cc(OC)c(OC)cc23)c(C)c1`, the IC50 was 518 nM.

For `COc1cc2ncnc(Oc3ccc(NC(=O)Nc4ccc(F)cc4)c(C)c3)c2cc1OC`, the IC50 amounted to 2.3 nM.

In turn, `COc1cc2ncnc(Oc3ccc(NC(=O)NCc4ccccn4)cc3)c2cc1OC` returned an IC50 of 750 nM.

Compound `CCCCNC(=O)Nc1ccc(Oc2ccnc3cc(OC)c(OC)cc23)cc1F` returned an IC50 of 5.1 nM.

Turning to `COc1ccccc1NC(=O)Nc1ccc(Oc2ncnc3cc(OC)c(OC)cc23)cc1C`, the IC50 is below 1 nM.

`CCNC(=O)Nc1ccc(Oc2ncnc3cc(OC)c(OC)cc23)cc1Cl` displayed an IC50 of 8 nM.

On to `COc1cc2nccc(Oc3ccc(NC(=O)Nc4cccc(F)c4OC)c(C)c3C)c2cc1OC`, for which the IC50 worked out at 5.3 nM.

For `COc1cc2nccc(Oc3ccc(NC(=O)Nc4ccccc4C)c(Cl)c3)c2cc1OC`, the IC50 amounted to 0.6 nM.

As for `COc1cc2ncnc(Oc3ccc(NC(=O)Nc4ccc(Cl)cn4)c(Cl)c3)c2cc1OC`, the IC50 was found to be 58 nM.

`CCNC(=O)Nc1ccc(Oc2ccnc3cc(OC)c(OC)cc23)cc1F` displayed an IC50 of 11 nM.

Compound `COc1cc2ncnc(Oc3ccc(NC(=O)NCc4ccc(F)cc4F)c(Cl)c3)c2cc1OC` gave an IC50 of 3.8 nM.

The compound `CCCNC(=O)Nc1ccc(Oc2ncnc3cc(OC)c(OC)cc23)cc1C` came in with an IC50 of 150 nM.

The compound `CCCNC(=O)Nc1ccc(Oc2ncnc3cc(OC)c(OC)cc23)cc1Cl` gave an IC50 of 16 nM.

The compound `CCCNC(=O)Nc1ccc(Oc2ncnc3cc(OC)c(OC)cc23)cc1[N+](=O)[O-]` yielded an IC50 of 10.2 nM.

In turn, `COc1cc2ncnc(Oc3ccc(NC(=O)Nc4ccc(F)cc4F)cc3C)c2cc1OC` registered an IC50 of 8.8 nM.

`CCC(C)NC(=O)Nc1ccc(Oc2ccnc3cc(OC)c(OC)cc23)cc1F` (stereo not drawn) came in with an IC50 of 7.8 nM.

Turning to `COc1cc2nccc(Oc3ccc(NC(=O)Nc4cccc(C)n4)c(C)c3C)c2cc1OC`, the IC50 was determined as 3.7 nM.

In the case of `C#CCNC(=O)Nc1ccc(Oc2ccnc3cc(OC)c(OC)cc23)cc1F`, the IC50 amounted to 5.2 nM.

The compound `CCCCNC(=O)Nc1ccc(Oc2ncnc3cc(OC)c(OC)cc23)c(C)c1` returned an IC50 of 450 nM.

`C=CCNC(=O)Nc1ccc(Oc2ncnc3cc(OC)c(OC)cc23)cc1Cl` yielded an IC50 of 13 nM.

Compound `COc1cc2c(Oc3cc(C)c(NC(=O)Nc4ccc(F)cc4F)cc3C)ccnc2cc1OCCN1CCOCC1` had an IC50 of 4.4 nM.

`CCCCCNC(=O)Nc1ccc(Oc2ncnc3cc(OC)c(OC)cc23)cc1` came in with an IC50 of 21 nM.

In turn, `COc1cc2nccc(Oc3cc(C)c(NC(=O)Nc4ccccc4C)cc3C)c2cc1OC` registered an IC50 of 5.9 nM.

The compound `COc1cc2nccc(Oc3ccc(NC(=O)Nc4ccccc4C)c(C)c3C)c2cc1OC` had an IC50 of 2.5 nM.

With `COc1cc2nccc(Oc3ccc(NC(=O)Nc4ccc(Br)cn4)c(C)c3C)c2cc1OC`, the IC50 turned out to be 4.4 nM.

`COc1cc2ncnc(Oc3ccc(NC(=O)Nc4ccccc4C)c(F)c3)c2cc1OC` had an IC50 of 2.7 nM.

`COc1cc2nccc(Oc3cc(C)c(NC(=O)Nc4ccc(F)cc4C)cc3C)c2cc1OC` gave an IC50 of 12 nM.

Regarding `COc1cc2nccc(Oc3ccc(NC(=O)Nc4ccc(Cl)cn4)c(Cl)c3)c2cc1OC`, the IC50 is 2.9 nM.

The compound `COc1cc2nccc(Oc3c(Cl)cc(NC(=O)Nc4ccc(F)cc4F)cc3Cl)c2cc1OC` displayed an IC50 of 4.3 nM.

Take `COc1cc2nccc(Oc3ccc(NC(=O)Nc4ccc(F)cc4F)c(C)c3C)c2cc1OC`: the IC50 was determined as 0.6 nM.

`CCCNC(=O)Nc1ccc(Oc2ccnc3cc(OC)c(OC)cc23)cc1Cl`: the IC50 was determined as 2.2 nM.

Consider `COc1ccc(NC(=O)Nc2ccc(Oc3ccnc4cc(OC)c(OC)cc34)c(C)c2C)cc1`, for which the IC50 was 3.3 nM.

Turning to `COc1cc2ncnc(Oc3ccc(NC(=O)Nc4ccc(F)cc4)cc3)c2cc1OC`, the IC50 is below 2 nM.

In turn, `C=CCNC(=O)Nc1ccc(Oc2ncnc3cc(OC)c(OC)cc23)cc1` had an IC50 of 45 nM.

With `COc1ccccc1NC(=O)Nc1ccc(Oc2ncnc3cc(OC)c(OC)cc23)cc1F`, the IC50 was below 1 nM.

`COc1ccccc1NC(=O)Nc1cc(C)c(Oc2ccnc3cc(OCCN4CCOCC4)c(OC)cc23)cc1C` came in with an IC50 of 5.9 nM.

Take `COc1cc2ncnc(Oc3ccc(NC(=O)Nc4ccc(F)cc4F)c(F)c3)c2cc1OC`: the IC50 came to 1.8 nM.

Compound `COc1cc2ncnc(Oc3ccc(NC(=O)Nc4ccccc4C)cc3)c2cc1OC` returned an IC50 of 6 nM.

For `CCCNC(=O)Nc1ccc(Oc2ccnc3cc(OC)c(OC)cc23)cc1[N+](=O)[O-]`, the IC50 came to 4 nM.

Take `COc1ccccc1NC(=O)Nc1ccc(Oc2ncnc3cc(OC)c(OC)cc23)cc1Cl`: the IC50 worked out at 0.6 nM.

The compound `COc1cc2nccc(Oc3ccc(NC(=O)Nc4ccc(C)cn4)c(C)c3C)c2cc1OC` registered an IC50 of 4.2 nM.

Regarding `COc1ccccc1NC(=O)Nc1ccc(Oc2ccnc3cc(OC)c(OC)cc23)c(C)c1C`, the IC50 is 1.7 nM.

In the case of `COc1cc2ncnc(Oc3ccc(NC(=O)Nc4ccc(F)cc4F)c(C)c3)c2cc1OC`, the IC50 amounted to 5.3 nM.

`COc1ccccc1NC(=O)Nc1ccc(Oc2ccnc3cc(OC)c(OC)cc23)cc1Cl`: the IC50 came to 0.6 nM.

As to `COc1cc2nccc(Oc3ccc(NC(=O)NCc4ccc(F)cc4F)c(F)c3)c2cc1OC`, the IC50 was found to be 1.8 nM.

`COc1cc2ncnc(Oc3ccc(NC(=O)NCc4ccc(F)cc4F)c(F)c3)c2cc1OC` gave an IC50 of 14 nM.

`C=CCNC(=O)Nc1ccc(Oc2ccnc3cc(OC)c(OC)cc23)cc1F` yielded an IC50 of 2.1 nM.

In the case of `CCCNC(=O)Nc1ccc(Oc2ccnc3cc(OC)c(OC)cc23)cc1F`, the IC50 came out at 2.9 nM.

In turn, `COCCOc1cc2nccc(Oc3ccc(NC(=O)Nc4ccc(F)cc4F)c(Cl)c3)c2cc1OC` showed an IC50 of 0.5 nM.

With `CCCCNC(=O)Nc1ccc(Oc2ncnc3cc(OC)c(OC)cc23)cc1F`, the IC50 is 45 nM.

`COc1cc2nccc(Oc3ccc(NC(=O)Nc4ccc(Br)cn4)c(Cl)c3)c2cc1OC` registered an IC50 of 11 nM.

Regarding `COc1cc2nccc(Oc3cc(C)c(NC(=O)Nc4cccc(F)c4OC)cc3C)c2cc1OC`, the half-maximal inhibitory concentration (IC50) came out at 4.9 nM.

On to `CCCCCNC(=O)Nc1ccc(Oc2ncnc3cc(OC)c(OC)cc23)cc1Cl`, for which the IC50 came to 4.1 nM.
